The values below are quoted from earlier work in US6177253A, “Screening methods for the identification of anti-HIV compounds employing a cyclosporine-specific monoclonal antibody that cross-reacts with HIV-1 p24” (priority 1998, dated 2001).

For the data set the following is noted: single break in a peptide bond by N O shift; cited from earlier work.

Regarding `C/C=C/C[C@@H](C)[C@H]1OC(=O)[C@H](C(C)C)N(C)C(=O)[C@H](CC(C)C)N(C)C(=O)[C@H](CC(C)C)N(C)C(=O)[C@@H](C)NC(=O)[C@H](C)NC(=O)[C@H](CC(C)C)N(C)C(=O)[C@H](C(C)C)NC(=O)[C@H](CC(C)C)N(C)C(=O)CN(C)C(=O)[C@H](CC)NC(=O)[C@H]1NC` [iso-CsA], the biological activity entry is on record as “loss of activity”.
